Data: patent US20100298141A1, “SUBSTITUTED PYRIDINE N-OXIDE HERBICIDES” (E. I. DU PONT DE NEMOURS AND COMPANY, priority 2007, published 2010)

Columns and labels:
Russian thistle = experiment: Test C pre-/postemergence test; type: in vivo, Salsola kali; conditions: for Plant response rating, Russian Thistle: 31 g ai/ha, scale 0 to 100 (0 no effect, 100 complete control)
Description: Seeds of plant species selected from blackgrass (Alopecurus myosuroides), downy brome (Bromus tectorum), green foxtail (Setaria viridis), Italian ryegrass (Lolium multiflorum), wheat (Triticum aestivum), wild oat (Avena fatua), catchweed bedstraw (Galium aparine), Russian thistle (Salsola kali), […] (Cynodon dactylon), Surinam grass (Brachiaria decumbens), cocklebur (Xanthium strumarium), corn (Zea mays), crabgrass (Digitaria sanguinalis), woolly cupgrass (Eriochloa villosa), giant foxtail (Setaria faberii), Goosegrass (Eleusin indica), johnsongrass (Sorghum halepense), kochia (Kochia scoparia), lambsquarters (Chenopodium album), morningglory (Ipomoea coccinea), eastern black nightshade (Solanum ptycanthum), yellow nutsedge (Cyperus esculentus), pigweed (Amaranthus retroflexus), common ragweed (Ambrosia elation), soybean (Glycine max), common (oilseed) sunflower (Helianthus annuus), and velvetleaf (Abutilon theophrasti) were planted and treated preemergence with test chemicals formulated in a non-phytotoxic solvent mixture which included a surfactant. At the same time, plants selected from these crop and weed species and also winter barley (Hordeum vulgare), canarygrass (Phalaris minor), and chickweed (Stellaria media) were treated with postemergence applications of some of the test chemicals formulated in the same manner. Plants ranged in height from 2 to 18 cm (1- to 4-leaf stage) for postemergence treatments. […] At time of treatment, test pots were flooded to 3 cm above the soil surface, treated by application of test compounds directly to the paddy water, and then maintained at that water depth for the duration of the test. […] A dash (-) response means no test result.

southern sandbur = experiment: Test F preemergence test; type: in vivo, Cenchrus echinatus; conditions: scale 0 to 100; for Sandbur plant response rating: preemergence; for Plant response rating, Sandbur: Preemergence
Description: (§1) Seeds of plant species selected from bermudagrass (Cynodon dactylon), Surinam grass (Brachiaria decumbens), large crabgrass (Digitaria sanguinalis), green foxtail (Setaria viridis), goosegrass (Eleusine indica), johnsongrass (Sorghum halepense), kochia (Kochia scoparia), pitted morningglory (Ipomoea lacunosa), purple nutsedge (Cyperus rotundus), common ragweed (Ambrosia elation), mustard (Brassica nigra), guineagrass (Panicum maximum), […] (Paspalum dilatatum), barnyardgrass (Echinochloa crus-galli), southern sandbur (Cenchrus echinatus), common sowthistle (Sonchus oleraceous), prickly […] spinosa), Italian ryegrass (Lolium multiflorum), common purslane (Portulaca oleracea), broadleaf signalgrass (Brachiaria platyphylla), common groundsel (Senecio vulgaris), common chickweed (Stellaria media), Virginia dayflower (Commelina virginica), annual bluegrass (Poa annua), naked crabgrass (Digitaria nuda), […] cochinchinensis), quackgrass (Elytrigia repens), Canada horseweed (Conyza canadensis), field bindweed (Convolvulus arvensis), […] (Bidens bipinnata), common mallow (Malva sylvestris), Russian thistle (Salsola kali), and sugarcane (Saccharum officinarum) were planted and treated preemergence with test chemicals formulated in a non-phytotoxic solvent mixture which included a surfactant. At a different time, sugarcane was treated with postemergence applications of some of the test chemicals formulated in the same manner. Plants were approximately 3- to 4-leaf stage for the postemergence treatments. Treated plants and controls were maintained in a greenhouse for 14 to 21 days, after which time all species were compared to controls and visually evaluated. […] A dash (-) response means no test result.

annual bluegrass = experiment: Test F preemergence test; type: in vivo, Poa annua; conditions: scale 0 to 100
Description: as §1

field bindweed = experiment: Test F preemergence test; type: in vivo, Convolvulus arvensis; conditions: scale 0 to 100
Description: as §1

common groundsel = experiment: Test F preemergence test; type: in vivo, Senecio vulgaris; conditions: scale 0 to 100
Description: as §1

common mallow = experiment: Test F preemergence test; type: in vivo, Malva sylvestris; conditions: scale 0 to 100
Description: as §1

mustard = experiment: Test F preemergence test; type: in vivo, Brassica nigra; conditions: scale 0 to 100
Description: as §1

common purslane = experiment: Test F preemergence test; type: in vivo, Portulaca oleracea; conditions: scale 0 to 100
Description: as §1

barnyardgrass = experiment: Test F preemergence test; type: in vivo, Echinochloa crus-galli; conditions: scale 0 to 100
Description: as §1

kochia = experiment: Test F preemergence test; type: in vivo, Kochia scoparia; conditions: scale 0 to 100
Description: as §1

large crabgrass = experiment: Test F preemergence test; type: in vivo, Digitaria sanguinalis; conditions: scale 0 to 100
Description: as §1

Surinam grass = experiment: Test F preemergence test; type: in vivo, Brachiaria decumbens; conditions: scale 0 to 100; for Surinam Grass plant response rating: preemergence; for Plant response rating, Surinam Grass: Preemergence
Description: as §1

Italian ryegrass = experiment: Test F preemergence test; type: in vivo, Lolium multiflorum; conditions: scale 0 to 100; for Ryegrass, Italian plant response rating: preemergence; for Plant response rating, Ryegrass, Italian: Preemergence
Description: as §1

guineagrass = experiment: Test F preemergence test; type: in vivo, Panicum maximum; conditions: scale 0 to 100
Description: as §1

quackgrass = experiment: Test F preemergence test; type: in vivo, Elytrigia repens; conditions: scale 0 to 100
Description: as §1

dallisgrass = experiment: Test F preemergence test; type: in vivo, Paspalum dilatatum; conditions: scale 0 to 100
Description: as §1

[1] = 62 g ai/ha, Preemergence, scale 0 to 100
[2] = 125 g ai/ha, preemergence, scale 0 (no effect) to 100 (complete control)
[3] = preemergence, 250 g ai/ha, scale 0 (no effect) to 100 (complete control)

SMILES: Cn1nc(C(F)(F)F)c(CS(=O)(=O)c2cc(C(C)(C)C)cc[n+]2[O-])c1OC(F)F [Compound 25]
- Russian Thistle plant response rating (Russian thistle; [1]): 100
- Plant response rating, Russian Thistle (Russian thistle; Preemergence): 100

SMILES: Cc1cc[n+]([O-])c(S(=O)(=O)Cc2c(C(F)(F)F)nn(C)c2OC(C)C(F)(F)F)c1 (stereo not shown) [Compound 96]
- Russian Thistle plant response rating (Russian thistle; [1]): 50
- Russian Thistle plant response rating (Russian thistle; [2]): 80
- Plant response rating, Russian Thistle (Russian thistle; Preemergence): 0
- Russian Thistle plant response rating (Russian thistle; [3]): 100

SMILES: Cn1nc(C(F)(F)C(F)(F)F)c(C[S+]([O-])c2ccc(Cl)c[n+]2[O-])c1OCC(F)(F)F (stereo not shown) [Compound 92]
- Russian Thistle plant response rating (Russian thistle; [1]): 100
- Russian Thistle plant response rating (Russian thistle; [2]): 100
- Plant response rating, Russian Thistle (Russian thistle; Preemergence): 100
- Russian Thistle plant response rating (Russian thistle; [3]): 100

SMILES: C#CCOc1c(C[S+]([O-])c2cccc[n+]2[O-])c(C(F)(F)F)nn1C (stereo not shown) [Compound 76]
- Russian Thistle plant response rating (Russian thistle; [1]): 100
- Russian Thistle plant response rating (Russian thistle; [2]): 100
- Plant response rating, Russian Thistle (Russian thistle; Preemergence): 0
- Russian Thistle plant response rating (Russian thistle; [3]): 100

SMILES: CCc1cc[n+]([O-])c(S(=O)(=O)Cc2c(C(F)(F)F)nn(C)c2OC(F)F)c1 [Compound 102]
- Russian Thistle plant response rating (Russian thistle; [1]): 100
- Russian Thistle plant response rating (Russian thistle; [2]): 100
- Plant response rating, Russian Thistle (Russian thistle; Preemergence): 100
- Russian Thistle plant response rating (Russian thistle; [3]): 100

SMILES: Cn1nc(C(F)(F)F)c(C(Cl)S(=O)(=O)c2cccc[n+]2[O-])c1OCC(F)(F)F (racemic) [Compound 36]
- Plant response rating, Russian Thistle (Russian thistle; Preemergence): 0
- Russian Thistle plant response rating (Russian thistle; [3]): 60

SMILES: CCc1cc[n+]([O-])c(S(=O)(=O)Cc2c(C(F)(F)F)nn(C)c2OCC(F)(F)F)c1 [Compound 60]
- Sandbur plant response rating (southern sandbur; 125 g ai/ha): 100
- Sandbur plant response rating (southern sandbur; 250 g ai/ha): 100
- Plant response rating, Sandbur (southern sandbur; 62 g ai/ha): 65
- Plant response rating, Sandbur (southern sandbur; 31 g ai/ha): 20
- Bluegrass plant response rating (annual bluegrass; 62 g ai/ha, Preemergence): 50
- Bluegrass plant response rating (annual bluegrass; 125 g ai/ha, preemergence): 90
- Bluegrass plant response rating (annual bluegrass; 250 g ai/ha, preemergence): 100
- Plant response rating, Bluegrass (annual bluegrass; Preemergence, 31 g ai/ha): 35
- Field Bindweed plant response rating (field bindweed; 62 g ai/ha, Preemergence): 30
- Field Bindweed plant response rating (field bindweed; 125 g ai/ha, preemergence): 50
- Field Bindweed plant response rating (field bindweed; 250 g ai/ha, preemergence): 70
- Plant response rating, Field Bindweed (field bindweed; Preemergence, 31 g ai/ha): 0
- Groundsel plant response rating (common groundsel; 62 g ai/ha, Preemergence): 60
- Groundsel plant response rating (common groundsel; 125 g ai/ha, preemergence): 75
- Groundsel plant response rating (common groundsel; 250 g ai/ha, preemergence): 95
- Plant response rating, Groundsel (common groundsel; Preemergence, 31 g ai/ha): 0
- Mallow plant response rating (common mallow; 62 g ai/ha, Preemergence): 75
- Mallow plant response rating (common mallow; 125 g ai/ha, preemergence): 100
- Mallow plant response rating (common mallow; 250 g ai/ha, preemergence): 100
- Plant response rating, Mallow (common mallow; Preemergence, 31 g ai/ha): 0
- Black Mustard plant response rating (mustard; 62 g ai/ha, Preemergence): 60
- Black Mustard plant response rating (mustard; 125 g ai/ha, preemergence): 100
- Black Mustard plant response rating (mustard; 250 g ai/ha, preemergence): 100
- Plant response rating, Black Mustard (mustard; Preemergence, 31 g ai/ha): 0
- Purslane plant response rating (common purslane; 62 g ai/ha, Preemergence): 0
- Purslane plant response rating (common purslane; 125 g ai/ha, preemergence): 25
- Purslane plant response rating (common purslane; 250 g ai/ha, preemergence): 60
- Plant response rating, Purslane (common purslane; Preemergence, 31 g ai/ha): 0
- Barnyardgrass plant response rating (barnyardgrass; 62 g ai/ha, Preemergence): 100
- Barnyardgrass plant response rating (barnyardgrass; 125 g ai/ha, preemergence): 100
- Barnyardgrass plant response rating (barnyardgrass; 250 g ai/ha, preemergence): 100
- Plant response rating, Barnyardgrass (barnyardgrass; Preemergence, 31 g ai/ha): 65
- Kochia plant response rating (kochia; 62 g ai/ha, Preemergence): 65
- Kochia plant response rating (kochia; 125 g ai/ha, preemergence): 100
- Kochia plant response rating (kochia; 250 g ai/ha, preemergence): 100
- Plant response rating, Kochia (kochia; Preemergence, 31 g ai/ha): 0
- Crabgrass, Large plant response rating (large crabgrass; 62 g ai/ha, Preemergence): 98
- Crabgrass, Large plant response rating (large crabgrass; 125 g ai/ha, preemergence): 100
- Crabgrass, Large plant response rating (large crabgrass; 250 g ai/ha, preemergence): 100
- Plant response rating, Crabgrass, Large (large crabgrass; Preemergence, 31 g ai/ha): 0
- Surinam Grass plant response rating (Surinam grass; 125 g ai/ha): 100
- Surinam Grass plant response rating (Surinam grass; 250 g ai/ha): 100
- Plant response rating, Surinam Grass (Surinam grass; 62 g ai/ha): 90
- Plant response rating, Surinam Grass (Surinam grass; 31 g ai/ha): 80
- Ryegrass, Italian plant response rating (Italian ryegrass; 125 g ai/ha): 90
- Ryegrass, Italian plant response rating (Italian ryegrass; 250 g ai/ha): 100
- Plant response rating, Ryegrass, Italian (Italian ryegrass; 62 g ai/ha): 75
- Plant response rating, Ryegrass, Italian (Italian ryegrass; 31 g ai/ha): 75
- Guineagrass plant response rating (guineagrass; 62 g ai/ha, Preemergence): 100
- Guineagrass plant response rating (guineagrass; 125 g ai/ha, preemergence): 100
- Guineagrass plant response rating (guineagrass; 250 g ai/ha, preemergence): 100
- Plant response rating, Guineagrass (guineagrass; Preemergence, 31 g ai/ha): 35
- Quackgrass plant response rating (quackgrass; 62 g ai/ha, Preemergence): 75
- Quackgrass plant response rating (quackgrass; 125 g ai/ha, preemergence): 90
- Quackgrass plant response rating (quackgrass; 250 g ai/ha, preemergence): 100
- Plant response rating, Quackgrass (quackgrass; Preemergence, 31 g ai/ha): 30
- Dallisgrass plant response rating (dallisgrass; 62 g ai/ha, Preemergence): 75
- Dallisgrass plant response rating (dallisgrass; 125 g ai/ha, preemergence): 80
- Dallisgrass plant response rating (dallisgrass; 250 g ai/ha, preemergence): 100
- Plant response rating, Dallisgrass (dallisgrass; Preemergence, 31 g ai/ha): 75

SMILES: Cn1nc(C(F)(F)F)c(C[S+]([O-])c2ccc(F)c[n+]2[O-])c1Cl (stereo not shown) [Compound 54]
- Russian Thistle plant response rating (Russian thistle; [1]): 30
- Russian Thistle plant response rating (Russian thistle; [2]): 100
- Plant response rating, Russian Thistle (Russian thistle; Preemergence): 0
- Russian Thistle plant response rating (Russian thistle; [3]): 100

SMILES: Cc1cc[n+]([O-])c(S(=O)(=O)Cc2c(C(F)(F)C(F)(F)F)nn(C)c2OCC(F)(F)F)c1 [Compound 99]
- Russian Thistle plant response rating (Russian thistle; [1]): 100
- Russian Thistle plant response rating (Russian thistle; [2]): 100
- Plant response rating, Russian Thistle (Russian thistle; Preemergence): 100
- Russian Thistle plant response rating (Russian thistle; [3]): 100
